This note sets out measurements from US11453703B2, “Heterotandem bicyclic peptide complexes” (BicycleTX Limited, priority 2018, dated 2022).

Data set [1] has as its target T1, CD137 (Homo sapiens, UniProt Q07011). In words: CD137 Biacore (SPR) binding assay. On the set-up: purchased R&D systems. The note with it: biotinylated human CD137, 25° C. On the procedure: Biacore experiments were performed to determine ka (M^−1s^−1), kd (s^−1), KD (nM) values of heterotandem peptides binding to human CD137 protein. […] The protein was desalted to remove uncoupled biotin using spin columns into PBS.
For analysis of peptide binding, a Biacore T200 or a Biacore 3000 instrument was used with a XanTec CMD500D chip. Streptavidin was immobilized on the chip using standard amine-coupling chemistry at 25° C. with HBS-N (10 mM HEPES, 0.15 M NaCl, pH 7.4) as the running buffer. Briefly, the carboxymethyl dextran surface was activated with a 7 min injection of a 1:1 ratio of 0.4 M 1-ethyl-3-(3-dimethylaminopropyl) carbodiimide hydrochloride (EDC)/0.1 M N-hydroxy succinimide (NHS) at a flow rate of 10 μl/min. For capture of streptavidin, the protein was diluted to 0.2 mg/ml in 10 mM sodium acetate (pH 4.5) and captured by injecting 120 μl of onto the activated chip surface. Residual activated groups were blocked with a 7 min injection of 1 M ethanolamine (pH 8.5) and biotinylated CD137 captured to a level of 270-1500 RU. Buffer was changed to PBS/0.05% Tween 20 and a dilution series of the peptides was prepared in this buffer with a final DMSO concentration of 0.5%. The top peptide concentration was 500 nM with 6 further 2-fold or 3-fold dilutions. The SPR analysis was run at 25° C. at a flow rate of 90 μl/min with 60 seconds association and 900 seconds dissociation. After each cycle a regeneration step (10 μl of 10 mM glycine pH 2) was employed. Data were corrected for DMSO excluded volume effects as needed. All data were double-referenced for blank injections and reference surface using standard processing procedures and data processing and kinetic fitting were performed using Scrubber software, version 2.0c (BioLogic Software). Data were fitted using simple 1:1 binding model allowing for mass transport effects where appropriate.
A general note: SPR reads the build-up and loss of mass on a sensor chip optically.

For data set [2], the target named is T1, CD137. In words: CD137 reporter assay, co-culture with EphA2 tumour cells. The note with it: tumour target EphA2, co-culture with PC3, at 100 nM; read-out: Fold Induction over Background at 100 nM. The format is cell-based. On the set-up: host or cells: Jurkat reporter cells. The method, then:
(§1) Culture medium referred to as R1 media is prepared by adding 1% FBS to RPMI-1640 (component of Promega kit CS196005). Serial dilutions of test articles in R1 are prepared in a sterile 96 well-plate. Use 25 μl per well of test articles or R1 (as a background control) to designated wells in white cell culture plate. Tumour cells* are harvested and resuspended at a concentration of 400,000 cells/mL in R1 media. Twenty five (25) μL/well tumour cells are used in white cell culture plate. Jurkat cells (Promega kit CS196005, 0.5 mL) are thawed in the water bath and then added to 5 ml pre-warmed R1 medium. Twenty five (25) μL/well Jurkat cells are used in white cell culture plate. Incubate the cells and test articles for 6h at 37° C., 5% CO2. At the end of 6 h, add 75 μl/well Bio-Glo™ (Promega) and incubate for 10 min before reading luminescence in a plate reader (Clariostar, BMG). The fold change relative to cells (Jurkat cells+Cell line used in co-culture) is calculated and plotted in GraphPad Prism as log(agonist) vs response to determine EC50 (nM) and Fold Induction over background (Max)
Background: A reporter such as luciferase makes a cellular process visible.

Data set [3] addresses T1, CD137. In words: CD137 reporter assay, co-culture with PD-L1 expressing cell line RKO. The format is cell-based. Also on record: host or cells: Jurkat reporter cells. The note with it: tumour target PD-L1, co-culture with RKO, 6 h; for fold induction: read-out: Fold Induction over Background. The method, then:
as §1

T1 sequence (Q07011 24-255): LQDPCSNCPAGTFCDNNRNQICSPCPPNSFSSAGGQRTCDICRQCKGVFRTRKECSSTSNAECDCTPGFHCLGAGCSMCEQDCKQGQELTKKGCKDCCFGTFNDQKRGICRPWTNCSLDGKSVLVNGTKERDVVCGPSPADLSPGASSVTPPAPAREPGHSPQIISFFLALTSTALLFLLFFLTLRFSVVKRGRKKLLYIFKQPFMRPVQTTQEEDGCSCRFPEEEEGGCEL

The compound `CCCC[C@@H]1NC(=O)[C@H](Cc2ccc(O)cc2)NC(=O)[C@@H]2CCCN2C(=O)[C@H](CC(=O)O)NC(=O)[C@@H](C)NC(=O)[C@H](Cc2ccccc2)NC(=O)[C@@H]2CSCCC(=O)N3CN(CN(C3)C(=O)CCSC[C@@H](C(=O)N[C@@H](CNC(=O)CCOCCOCCOCCOCCOCCOCCOCCOCCOCCOCCOCCOCCn3cc(CCC(=O)NCCC(=O)N(C)CC(=O)N(C)CC(=O)N(C)CC(=O)N(C)CC(=O)N(C)CC(=O)N(C)CC(=O)N(C)CC(=O)N(C)CC(=O)N(C)CC(=O)N(C)CC(=O)N[C@@H](C)C(=O)N[C@@H](CCCCNC(=N)N)C(=O)N[C@@H](CC(=O)O)C(=O)N[C@H]4CSCCC(=O)N5CN6CN(C5)C(=O)CCSC[C@H](NC(=O)[C@H](CC(C)C)NC(=O)[C@@H]5CCCN5C(=O)[C@H](CC(N)=O)NC(=O)[C@H](C(C)C)NC(=O)[C@H](CC(C)C)NC(=O)[C@@H]5C[C@@H](O)CN5C4=O)C(=O)N[C@@H](CC(C)C)C(=O)N[C@@H](Cc4c[nH]cn4)C(=O)N4CCC[C@H]4C(=O)N[C@H](CC(=O)O)C(=O)N[C@@H](Cc4c[nH]c5ccccc45)C(=O)N[C@@H](CCCCNC(=N)N)C(=O)N[C@H](C(N)=O)CSCCC6=O)nn3)C(N)=O)NC1=O)C(=O)CCSC[C@H](NC(=O)[C@H](C)NC(C)=O)C(=O)N[C@@H]([C@@H](C)CC)C(=O)N[C@@H](CCC(=O)O)C(=O)N[C@@H](CCC(=O)O)C(=O)NCC(=O)N[C@@H](CCC(N)=O)C(=O)N[C@@H](Cc1ccc(O)cc1)C(=O)N2` [BCY8942] came in with an equilibrium dissociation constant (Kd) in data set [1] of 853 nM. Also, the fold induction at 0.1 µM in data set [2] is less than 2.

On to `CCCC[C@@H]1NC(=O)[C@H](Cc2ccc(O)cc2)NC(=O)[C@@H]2CCCN2C(=O)[C@H](CC(=O)O)NC(=O)[C@H](C)NC(=O)[C@H](Cc2ccccc2)NC(=O)[C@@H]2CSCCC(=O)N3CN(CN(C3)C(=O)CCSC[C@@H](C(=O)N[C@@H](C)C(N)=O)NC1=O)C(=O)CCSC[C@H](NC(C)=O)C(=O)N[C@@H](CC(C)(C)C)C(=O)N1CCC[C@H]1C(=O)N[C@@H](CCCCNC(=O)CCOCCOCCOCCOCCOCCn1cc(CCC(=O)NCCCC[C@@H]3NC(=O)[C@H](CCC(N)=O)NC(=O)[C@@H]4CSCCC(=O)N5CN(CN(C5)C(=O)CCSC[C@@H](C(=O)N5CCC[C@H]5C(=O)N[C@@H](CO)C(=O)N[C@@H](Cc5c[nH]cn5)C(N)=O)NC(=O)[C@H](CC(C)C)NC(=O)[C@H](Cc5c[nH]cn5)NC(=O)[C@H](CC(C)C)NC3=O)C(=O)CCSC[C@H](NC(=O)[C@H](CCCCN)NC(=O)[C@H](CC(=O)O)NC(=O)[C@H](CO)NC(C)=O)C(=O)N[C@@H](CO)C(=O)N[C@@H](C)C(=O)NCC(=O)N[C@@H](Cc3c[nH]c5ccccc35)C(=O)N[C@@H](CC(C)C)C(=O)N[C@@H]([C@@H](C)O)C(=O)N[C@@H](CCSC)C(=O)N4)nn1)C(=O)N[C@H](C)C(=O)N1CCC[C@H]1C(=O)N[C@@H](Cc1ccc(O)cc1)C(=O)N2` [BCY11379], for which the fold induction in data set [3] was 6. For `CCCC[C@@H]1NC(=O)[C@H](Cc2ccc(O)cc2)NC(=O)[C@@H]2CCCN2C(=O)[C@H](CC(=O)O)NC(=O)[C@H](C)NC(=O)[C@H](Cc2ccccc2)NC(=O)[C@@H]2CSCCC(=O)N3CN(CN(C3)C(=O)CCSC[C@@H](C(=O)N[C@@H](C)C(N)=O)NC1=O)C(=O)CCSC[C@H](NC(C)=O)C(=O)N[C@@H](CC(C)(C)C)C(=O)N1CCC[C@H]1C(=O)N[C@@H](CCC(=O)O)C(=O)N[C@H](CCCCNC(=O)CCOCCOCCOCCOCCOCCn1cc(CCC(=O)NCCCC[C@@H]3NC(=O)[C@H](CCC(N)=O)NC(=O)[C@@H]4CSCCC(=O)N5CN(CN(C5)C(=O)CCSC[C@@H](C(=O)N5CCC[C@H]5C(=O)N[C@@H](CO)C(=O)N[C@@H](Cc5c[nH]cn5)C(N)=O)NC(=O)[C@H](CC(C)C)NC(=O)[C@H](Cc5c[nH]cn5)NC(=O)[C@H](CC(C)C)NC3=O)C(=O)CCSC[C@H](NC(=O)[C@H](CCCCN)NC(=O)[C@H](CC(=O)O)NC(=O)[C@H](CO)NC(C)=O)C(=O)N[C@@H](CO)C(=O)N[C@@H](C)C(=O)NCC(=O)N[C@@H](Cc3c[nH]c5ccccc35)C(=O)N[C@@H](CC(C)C)C(=O)N[C@@H]([C@@H](C)O)C(=O)N[C@@H](CCSC)C(=O)N4)nn1)C(=O)N1CCC[C@H]1C(=O)N[C@@H](Cc1ccc(O)cc1)C(=O)N2` [BCY11380], the “Fold Induction over Background” value in data set [3] is 7 fold. Regarding `CCCC[C@@H]1NC(=O)[C@H](Cc2ccc(O)cc2)NC(=O)[C@@H]2CCCN2C(=O)[C@H](CC(=O)O)NC(=O)[C@H](C)NC(=O)[C@H](Cc2ccccc2)NC(=O)[C@@H]2CSCCC(=O)N3CN(CN(C3)C(=O)CCSC[C@@H](C(=O)N[C@@H](CNC(=O)CCOCCOCCOCCOCCOCCn3cc(CCC(=O)NCCCC[C@@H]4NC(=O)[C@H](CCC(N)=O)NC(=O)[C@@H]5CSCCC(=O)N6CN(CN(C6)C(=O)CCSC[C@@H](C(=O)N6CCC[C@H]6C(=O)N[C@@H](CO)C(=O)N[C@@H](Cc6c[nH]cn6)C(N)=O)NC(=O)[C@H](CC(C)C)NC(=O)[C@H](Cc6c[nH]cn6)NC(=O)[C@H](CC(C)C)NC4=O)C(=O)CCSC[C@H](NC(=O)[C@H](CCCCN)NC(=O)[C@H](CC(=O)O)NC(=O)[C@H](CO)NC(C)=O)C(=O)N[C@@H](CO)C(=O)N[C@@H](C)C(=O)NCC(=O)N[C@@H](Cc4c[nH]c6ccccc46)C(=O)N[C@@H](CC(C)C)C(=O)N[C@@H]([C@@H](C)O)C(=O)N[C@@H](CCSC)C(=O)N5)nn3)C(N)=O)NC1=O)C(=O)CCSC[C@H](NC(C)=O)C(=O)N[C@@H](CC(C)(C)C)C(=O)N1CCC[C@H]1C(=O)N[C@@H](CCC(=O)O)C(=O)N[C@H](C)C(=O)N1CCC[C@H]1C(=O)N[C@@H](Cc1ccc(O)cc1)C(=O)N2` [BCY11381], the fold induction in data set [3] worked out at 7.

The term Kd denotes the equilibrium constant for the complex coming apart. Low values mean higher affinity, high ones lower affinity.
